From patent US6472348B1, “Pyridone derivatives and herbicides” (Kumiai Chemical Industry Co., Ltd., priority 1996, dated 2002) come the findings set out here.

For one data set, the system named is China jute (Ab). In words: Test Example 4: crop plant selectivity by upland field soil treatment (cotton), herbicidal effects. Format: in vivo. Set-up: scale not given here. The following applies: evaluated 21st day after application. A digest of the protocol:
(§1)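 Cotton and weeds (incl. China jute, pale smartweed, slender amaranth) sown in sand-filled pots and covered with soil, then soil-treated. Grown in greenhouse; herbicidal effect and cotton phytotoxicity scored on day 21 after application against a rating standard.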

In data set [1] the test system is pale smartweed (Po). Described as above. The data set is classed as in vivo. Set-up: scale not given here. The following applies: evaluated 21st day after application. A digest of the protocol: as §1
A further data set has as its system slender amaranth (Am). The data set is described as above. Format: in vivo. Set-up: scale not given here. The following applies: evaluated 21st day after application. Summed up:
as §1

The test system of data set [2] is common lambsquarters (Ch). Described as above. Format: in vivo. Set-up: scale not given here. The following applies: evaluated 21st day after application. A digest of the protocol:
as §1

For the next data set, the system named is rice flatsedge (Ci). Put plainly: Test Example 2: herbicidal effects by upland field soil treatment.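 Further: grade of growth control; 5 = at least 90%; 4 = 70 to 90%; 3 = 50 to 70%; 2 = 30 to 50%; 1 = 10 to 30%; 0 = under 10%.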 The data set is classed as in vivo. To be noted: 100 g of the active ingredient per 10 ares, evaluated on the 21st day after application. From the text:
(§2) (Test on Herbicidal Effects by Upland Field Soil Treatment)

The next data set relates to barnyardgrass (Ec). Described as above. The data set is classed as in vivo. The following applies: 100 g of the active ingredient per 10 ares, evaluated on the 21st day after application.
Source text: as §2

The test system of data set [3] is pale smartweed (Po). The description is as above. The data set is classed as in vivo. The following applies: 100 g of the active ingredient per 10 ares, evaluated on the 21st day after application.
Source text: as §2

Data set [4] has as its system common lambsquarters (Ch). The description is as above. The data set is classed as in vivo. The following applies: 100 g of the active ingredient per 10 ares, evaluated on the 21st day after application.
Source text: as §2

A further data set relates to corn (Ze). Put plainly: Test Example 11: crop plant selectivity by upland field foliage treatment (corn), phytotoxicity. The following applies: dose 1.6 g ai/10a. Summed up: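 Corn and the weed species were sown together in sand-filled pots and grown in a greenhouse for 2 weeks before foliar treatment. Herbicidal effect was scored on day 14 after treatment against a graded standard scale, with corn phytotoxicity scored alongside.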

[5] abbreviates: upland field foliage treatment, 14th day after treatment.
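Wherever Herbicidal effects Ec is given: grade of growth control; 5 = at least 90%; 4 = 70 to 90%; 3 = 50 to 70%; 2 = 30 to 50%; 1 = 10 to 30%; 0 = under 10%.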

Regarding `C=CC(C)Oc1cc(-c2ccc(C(F)(F)F)n(C)c2=O)c(F)cc1Cl` (stereo not shown) [Compound 1-182], the “Herbicidal effects Ab” value in the data set with China jute (Ab) (dose 6.3 g ai/10 a) came out at 5. Besides, the “Herbicidal effects Po” value in the data set on pale smartweed (Po) [1] (dose 6.3 g ai/10 a) and in the data set with pale smartweed (Po) [3] was 5 throughout. Moreover, the “Herbicidal effects Am” value with slender amaranth (Am) (dose 6.3 g ai/10 a) turned out to be 5. Moreover, the “Herbicidal effects Ch” value in [2] (dose 6.3 g ai/10 a) and in data set [4] was 5 throughout. The “Herbicidal effects Ci” value in the data set on rice flatsedge (Ci) is recorded as 5. Further, the “Herbicidal effects Ec” value in the data set with barnyardgrass (Ec) came to 5. Moreover, in the data set with corn (Ze) (setting [5]), the “Phytotoxicity Ze” value stood at 1.

Regarding `CCON=Cc1cc(-c2ccc(C(F)(F)F)n(C)c2=O)c(F)cc1Cl` [Compound 1-187], the “Herbicidal effects Ab” value in the data set with China jute (Ab) (dose 6.3 g ai/10 a) is recorded as 5. Besides, the “Herbicidal effects Po” value with pale smartweed (Po) [1] (dose 6.3 g ai/10 a) and in the data set on pale smartweed (Po) [3] was 5 in each case. Besides, the “Herbicidal effects Am” value with slender amaranth (Am) (dose 6.3 g ai/10 a) came out at 5. Moreover, the “Herbicidal effects Ch” value in [2] (dose 6.3 g ai/10 a) and in [4] was 5 throughout. Further, the “Herbicidal effects Ci” value in the data set with rice flatsedge (Ci) was 5. Moreover, in the data set with barnyardgrass (Ec), the “Herbicidal effects Ec” value is reported as 5. In addition, in the data set on corn (Ze) (setting [5]), the “Phytotoxicity Ze” value stood at 2.

For the molecule `CCOC(=O)CON=Cc1cc(-c2ccc(C(F)(F)F)n(C)c2=O)c(F)cc1Cl` [Compound 1-191], the “Herbicidal effects Ab” value in the data set with China jute (Ab) (dose 6.3 g ai/10 a) was 5. For the same molecule, the “Herbicidal effects Po” value with pale smartweed (Po) [1] (dose 6.3 g ai/10 a) and in the data set with pale smartweed (Po) [3] was 5 throughout. The “Herbicidal effects Am” value in the data set with slender amaranth (Am) (dose 6.3 g ai/10 a) is 5. The “Herbicidal effects Ch” value in data set [2] (dose 6.3 g ai/10 a) and in data set [4] was 5 each time. Moreover, the “Herbicidal effects Ci” value in the data set with rice flatsedge (Ci) is 5. Besides, the “Herbicidal effects Ec” value with barnyardgrass (Ec) was determined as 5. Also, in the data set with corn (Ze) (setting [5]), the “Phytotoxicity Ze” value turned out to be 2.

In the case of `C=CC(O)c1cc(-c2ccc(C(F)(F)F)n(C)c2=O)c(F)cc1Cl` (stereo not shown) [Compound 1-197], the “Herbicidal effects Ab” value in the data set with China jute (Ab) (dose 6.3 g ai/10 a) turned out to be 5. Moreover, the “Herbicidal effects Po” value in the data set on pale smartweed (Po) [1] (dose 6.3 g ai/10 a) and in the data set with pale smartweed (Po) [3] was 5 throughout. In addition, the “Herbicidal effects Am” value in the data set on slender amaranth (Am) (dose 6.3 g ai/10 a) came out at 5. Further, the “Herbicidal effects Ch” value in [2] (dose 6.3 g ai/10 a) and in data set [4] was 5 throughout. Further, the “Herbicidal effects Ci” value in the data set with rice flatsedge (Ci) was 5. In the data set on barnyardgrass (Ec), the “Herbicidal effects Ec” value is on record as 5. The “Phytotoxicity Ze” value with corn (Ze) (setting [5]) is recorded as 2.

For `CSCOc1cc(-c2ccc(C(F)(F)F)n(C)c2=O)c(F)cc1Cl` [Compound 1-208], the “Herbicidal effects Ab” value with China jute (Ab) (dose 6.3 g ai/10 a) worked out at 5. For the same molecule, the “Herbicidal effects Po” value in the data set with pale smartweed (Po) [1] (dose 6.3 g ai/10 a) turned out to be 4; with pale smartweed (Po) [3], 5. In the data set on slender amaranth (Am) (dose 6.3 g ai/10 a), the “Herbicidal effects Am” value is given as 5. For the same molecule, the “Herbicidal effects Ch” value in [2] (dose 6.3 g ai/10 a) and in [4] was 5 each time. Besides, the “Herbicidal effects Ci” value in the data set with rice flatsedge (Ci) is listed as 5. The “Herbicidal effects Ec” value with barnyardgrass (Ec) is 5. In the data set on corn (Ze) (setting [5]), the “Phytotoxicity Ze” value is reported as 2.

`C#CCN1C(=O)COc2cc(Cl)c(-c3ccc(C(F)(F)F)n(C)c3=O)cc21` [Compound 2-25]: the “Herbicidal effects Ab” value in the data set with China jute (Ab) (dose 1.6 g ai/10 a) and in the data set on China jute (Ab) (dose 6.3 g ai/10 a) was 5 in each case. In addition, the “Herbicidal effects Po” value with pale smartweed (Po) [1] (dose 1.6 g ai/10 a), in the data set on pale smartweed (Po) [1] (dose 6.3 g ai/10 a) and in the data set on pale smartweed (Po) [3] was 5 throughout. For the same molecule, the “Herbicidal effects Am” value in the data set on slender amaranth (Am) (dose 1.6 g ai/10 a) and in the data set with slender amaranth (Am) (dose 6.3 g ai/10 a) was 5 each time. Further, the “Herbicidal effects Ch” value in data set [2] (dose 1.6 g ai/10 a), in [2] (dose 6.3 g ai/10 a) and in data set [4] was 5 each time. In the data set on rice flatsedge (Ci), the “Herbicidal effects Ci” value was found to be 5. Moreover, the “Herbicidal effects Ec” value with barnyardgrass (Ec) is 5. Moreover, in the data set on corn (Ze) (setting [5]), the “Phytotoxicity Ze” value is listed as 2.

On to `C=CCN1C(=O)COc2cc(Cl)c(-c3ccc(C(F)(F)F)n(C)c3=O)cc21` [Compound 2-26], for which the “Herbicidal effects Ab” value in the data set with China jute (Ab) (dose 6.3 g ai/10 a) is 5. Also, the “Herbicidal effects Po” value in the data set on pale smartweed (Po) [1] (dose 6.3 g ai/10 a) and with pale smartweed (Po) [3] was 5 throughout. For the same molecule, the “Herbicidal effects Am” value in the data set with slender amaranth (Am) (dose 6.3 g ai/10 a) was 5. Besides, the “Herbicidal effects Ch” value in data set [2] (dose 6.3 g ai/10 a) and in [4] was 5 in each case. Also, the “Herbicidal effects Ci” value with rice flatsedge (Ci) is on record as 5. The “Herbicidal effects Ec” value with barnyardgrass (Ec) stood at 5. The “Phytotoxicity Ze” value in the data set with corn (Ze) (setting [5]) is recorded as 2.

For the molecule `CCCc1cc2c(-c3ccc(C(F)(F)F)n(C)c3=O)c(F)cc(Cl)c2o1` [Compound 4-3], in the data set with China jute (Ab) (dose 6.3 g ai/10 a), the “Herbicidal effects Ab” value is given as 5. Moreover, the “Herbicidal effects Po” value in the data set with pale smartweed (Po) [1] (dose 6.3 g ai/10 a) and in the data set with pale smartweed (Po) [3] was 5 each time. Besides, in the data set on slender amaranth (Am) (dose 6.3 g ai/10 a), the “Herbicidal effects Am” value came out at 5. The “Herbicidal effects Ch” value in [2] (dose 6.3 g ai/10 a) and in [4] was 5 in each case. Besides, the “Herbicidal effects Ci” value in the data set with rice flatsedge (Ci) turned out to be 5. Besides, in the data set with barnyardgrass (Ec), the “Herbicidal effects Ec” value turned out to be 5. The “Phytotoxicity Ze” value with corn (Ze) (setting [5]) amounted to 2.

Turning to `CCc1cc2c(Cl)cc(F)c(-c3ccc(C(F)(F)F)n(C)c3=O)c2o1` [Compound 5-2], the “Herbicidal effects Ab” value with China jute (Ab) (dose 6.3 g ai/10 a) is listed as 5. For the same molecule, the “Herbicidal effects Po” value in the data set on pale smartweed (Po) [1] (dose 6.3 g ai/10 a) and in the data set with pale smartweed (Po) [3] was 5 throughout. In the data set with slender amaranth (Am) (dose 6.3 g ai/10 a), the “Herbicidal effects Am” value came out at 5. Moreover, the “Herbicidal effects Ch” value in [2] (dose 6.3 g ai/10 a) and in data set [4] was 5 in each case. Also, the “Herbicidal effects Ci” value with rice flatsedge (Ci) was determined as 5. Also, the “Herbicidal effects Ec” value in the data set with barnyardgrass (Ec) turned out to be 5. Moreover, the “Phytotoxicity Ze” value in the data set with corn (Ze) (corn, foliage treatment, evaluated on 14th day after treatment, index per Table 47) came to 2.
